According to ChEMBL document CHEMBL5620413, “Novel pterostilbene derivatives ameliorate heart failure by reducing oxidative stress and inflammation through regulating Nrf2/NF-κB signaling pathway” (Eur J Med Chem, 2023):
Active and inactive are the calls of the source.

Experiments:
RAW264.7 [1] = test: Antiinflammatory activity in mouse RAW264.7 cells assessed as decrease in LPS-induced COX2 expression preincubated for 1 hr followed by LPS treatment for 24 hrs by Western blot analysis; assay type: functional, cell-based; conditions: dose <= 10.0 µM, time 25.0 hrs
H9c2 [2] = test: Inhibition of ROS generation in rat H9c2 cells preincubated for 1 hr followed by DOX treatment for 12 hrs by DCFH-DA dye based analysis; assay type: functional, cell-based; conditions: dose <= 10.0 µM, time 13.0 hrs
H9c2 [3] = test: Antiinflammatory activity against rat H9c2 cells assessed as decrease in DOX-induced IL-1beta expression upto 10 uM preincubated for 1 hr followed by DOX treatment for 12 hrs by Western blot analysis; assay type: functional, cell-based; conditions: time 13.0 hrs
H9c2 [4] = test: Inhibition of ROS generation in rat H9c2 cells preincubated for 1 hr followed by LPS treatment for 24 hrs by DCFH-DA dye based analysis; assay type: functional, cell-based; conditions: dose <= 10.0 µM, time 25.0 hrs
Mus musculus [5] = test: Protection against cardiac dysfunction C57BL/6J mouse model assessed as decrease in DOX-induced accumulation of inflammatory cells at 7 mg/kg, ip administered daily for 4 weeks by H and E staining based analysis; assay type: functional, organism-based
RAW264.7 [6] = test: Antiinflammatory activity against mouse RAW264.7 cells assessed as decrease in LPS-induced IL-1beta mRNA expression upto 10 uM preincubated for 1 hr followed by LPS treatment for 24 hrs by qRT-PCR analysis; assay type: functional, cell-based; conditions: time 25.0 hrs
Mus musculus [7] = test: Antiinflammatory activity in cardiac dysfunction C57BL/6J mouse model assessed as decrease in DOX-induced IL-6 expression at 7 mg/kg, ip administered daily for 4 weeks by Western blot analysis; assay type: functional, organism-based
RAW264.7 [8] = test: Antiinflammatory activity in mouse RAW264.7 cells assessed as decrease in LPS-induced NO production at 10 uM preincubated for 1 hr followed by LPS treatment for 24 hrs by Griess reagent based assay; assay type: functional, cell-based; conditions: time 25.0 hrs
Mus musculus [9] = test: Protection against cardiac dysfunction C57BL/6J mouse model assessed as decrease in DOX-induced serum ALP level at 7 mg/kg, ip administered daily for 4 weeks; assay type: functional, organism-based
Mus musculus [10] = test: Protection against cardiac dysfunction C57BL/6J mouse model assessed as increase in DOX-reduced cardiac NQO1 expression at 7 mg/kg, ip administered daily for 4 weeks by Western blot analysis; assay type: functional, organism-based
RAW264.7 [11] = test: Inhibition of ROS generation in mouse RAW264.7 cells assessed as increase in DOX-reduced GPX1 expression upto 10 uM preincubated for 1 hr followed by DOX treatment for 12 hrs by Western blot analysis; assay type: functional, cell-based; conditions: time 13.0 hrs
Mus musculus [12] = test: Protection against cardiac dysfunction C57BL/6J mouse model assessed as decrease in DOX-induced myocardial cell injury at 7 mg/kg, ip administered daily for 4 weeks by H and E staining based analysis; assay type: functional, organism-based
RAW264.7 [13] = test: Inhibition of ROS generation in mouse RAW264.7 cells preincubated for 1 hr followed by LPS treatment for 24 hrs by DCFH-DA dye based analysis; assay type: functional, cell-based; conditions: dose <= 10.0 µM, time 25.0 hrs
H9c2 [14] = test: Inhibition of ROS generation in rat H9c2 cells assessed as increase in DOX-reduced CAT expression upto 10 uM preincubated for 1 hr followed by DOX treatment for 12 hrs by Western blot analysis; assay type: functional, cell-based; conditions: time 13.0 hrs
Mus musculus [15] = test: Protection against cardiac dysfunction C57BL/6J mouse model assessed as decrease in DOX-induced TGF-beta1 expression at 7 mg/kg, ip administered daily for 4 weeks by Western blot analysis; assay type: functional, organism-based
Mus musculus [16] = test: Protection against cardiac dysfunction C57BL/6J mouse model assessed as decrease in DOX-induced myocardial fibrosis at 7 mg/kg, ip administered daily for 4 weeks by Sirius Red staining based analysis; assay type: functional, organism-based
RAW264.7 [17] = test: Inhibition of ROS generation in mouse RAW264.7 cells assessed as increase in DOX-reduced SOD expression upto 10 uM preincubated for 1 hr followed by DOX treatment for 12 hrs by Western blot analysis; assay type: functional, cell-based; conditions: time 13.0 hrs
H9c2 [18] = test: Inhibition of ROS generation in rat H9c2 cells assessed as increase in DOX-reduced SOD expression upto 10 uM preincubated for 1 hr followed by DOX treatment for 12 hrs by Western blot analysis; assay type: functional, cell-based; conditions: time 13.0 hrs
Mus musculus [19] = test: Protection against cardiac dysfunction C57BL/6J mouse model assessed as increase in DOX-reduced cardiac SOD2 expression at 7 mg/kg, ip administered daily for 4 weeks by Western blot analysis; assay type: functional, organism-based
H9c2 [20] = test: Inhibition of ROS generation in rat H9c2 cells assessed as increase in DOX-reduced GPX1 expression upto 10 uM preincubated for 1 hr followed by DOX treatment for 12 hrs by Western blot analysis; assay type: functional, cell-based; conditions: time 13.0 hrs
Mus musculus [21] = test: Protection against cardiac dysfunction C57BL/6J mouse model assessed as increase in DOX-reduced heart rate at 7 mg/kg, ip administered daily for 4 weeks by echocardiography; assay type: functional, organism-based
Mus musculus [22] = test: Protection against cardiac dysfunction C57BL/6J mouse model assessed as increase in DOX-reduced ratio of heart weight to body weight at 7 mg/kg, ip administered daily for 4 weeks; assay type: functional, organism-based
Mus musculus [23] = test: Protection against cardiac dysfunction C57BL/6J mouse model assessed as increase in DOX-reduced heart size at 7 mg/kg, ip administered daily for 4 weeks; assay type: functional, organism-based
Mus musculus [24] = test: Protection against cardiac dysfunction C57BL/6J mouse model assessed as decrease in DOX-induced serum CK level at 7 mg/kg, ip administered daily for 4 weeks; assay type: functional, organism-based
H9c2 [25] = test: Antiinflammatory activity against rat H9c2 cells assessed as decrease in DOX-induced IL-6 expression upto 10 uM preincubated for 1 hr followed by DOX treatment for 12 hrs by Western blot analysis; assay type: functional, cell-based; conditions: time 13.0 hrs
RAW264.7 [26] = test: Antiinflammatory activity against mouse RAW264.7 cells assessed as decrease in DOX-induced NF-kappaB phosphorylation upto 10 uM preincubated for 1 hr followed by DOX treatment for 12 hrs by Western blot analysis; assay type: functional, cell-based; conditions: time 13.0 hrs
Mus musculus [27] = test: Protection against cardiac dysfunction C57BL/6J mouse model assessed as decrease in DOX-induced serum LDH level at 7 mg/kg, ip administered daily for 4 weeks; assay type: functional, organism-based
Mus musculus [28] = test: Protection against cardiac dysfunction C57BL/6J mouse model assessed as increase in DOX-reduced cardiac Nrf2 expression at 7 mg/kg, ip administered daily for 4 weeks by Western blot analysis; assay type: functional, organism-based
RAW264.7 [29] = test: Antiinflammatory activity against mouse RAW264.7 cells assessed as decrease in LPS-induced IL-6 expression upto 10 uM preincubated for 1 hr followed by LPS treatment for 24 hrs by Western blot analysis; assay type: functional, cell-based; conditions: time 25.0 hrs
Mus musculus [30] = test: Antiinflammatory activity in cardiac dysfunction C57BL/6J mouse model assessed as decrease in DOX-induced TNF-alpha expression at 7 mg/kg, ip administered daily for 4 weeks by Western blot analysis; assay type: functional, organism-based
H9c2 [31] = test: Inhibition of ROS generation in rat H9c2 cells assessed as increase in LPS-reduced Nrf2 expression upto 10 uM preincubated for 1 hr followed by LPS treatment for 24 hrs by Western blot analysis; assay type: functional, cell-based; conditions: time 25.0 hrs
Mus musculus [32] = test: Antiinflammatory activity in cardiac dysfunction C57BL/6J mouse model assessed as decrease in DOX-induced IL-1beta expression at 7 mg/kg, ip administered daily for 4 weeks by Western blot analysis; assay type: functional, organism-based
RAW264.7 [33] = test: Antiinflammatory activity against mouse RAW264.7 cells assessed as decrease in LPS-induced NF-kappaB phosphorylation upto 10 uM preincubated for 1 hr followed by LPS treatment for 24 hrs by Western blot analysis; assay type: functional, cell-based; conditions: time 25.0 hrs

CCCCOc1ccc(/C=C/c2cc(OC)cc(OC)c2C2CC(C)=NN2C(C)=O)cc1 (stereo not drawn)
active: Activity (RAW264.7 [1]) Dose-Dependent Effect | inhibition (H9c2 [2]) Dose-Dependent Effect | Activity (H9c2 [3]) | inhibition (H9c2 [4]) Dose-Dependent Effect | Activity (Mus musculus [5]) | Activity (RAW264.7 [6]) | Activity (Mus musculus [7]) | Activity (RAW264.7 [8]) | Activity (Mus musculus [9]) | Activity (Mus musculus [10]) | inhibition (RAW264.7 [11]) | Activity (Mus musculus [12]) | inhibition (RAW264.7 [13]) Dose-Dependent Effect | inhibition (H9c2 [14]) | Activity (Mus musculus [15]) | Activity (Mus musculus [16]) | inhibition (RAW264.7 [17]) | inhibition (H9c2 [18]) | Activity (Mus musculus [19]) | inhibition (H9c2 [20]) | Activity (Mus musculus [21]) | Activity (Mus musculus [22]) | Activity (Mus musculus [23]) | Activity (Mus musculus [24]) | Activity (H9c2 [25]) | Activity (RAW264.7 [26]) | Activity (Mus musculus [27]) | Activity (Mus musculus [28]) | Activity (RAW264.7 [29]) | Activity (Mus musculus [30]) | inhibition (H9c2 [31]) | Activity (Mus musculus [32]) | Activity (RAW264.7 [33])
